According to PMC4046262 (Scientific Reports, 2014):

How the values were obtained:
AtCRY1 PHR = AtCRY1 PHR (Arabidopsis thaliana, UniProt Q43125); experiment: biochemical
[1] = biological target: full-length (wild-type) AtCRY1 (Arabidopsis thaliana, UniProt Q43125); conditions: FAD-bound full-length protein; details only in supplement
Sequence of full-length (wild-type) AtCRY1 (Q43125 whole entry): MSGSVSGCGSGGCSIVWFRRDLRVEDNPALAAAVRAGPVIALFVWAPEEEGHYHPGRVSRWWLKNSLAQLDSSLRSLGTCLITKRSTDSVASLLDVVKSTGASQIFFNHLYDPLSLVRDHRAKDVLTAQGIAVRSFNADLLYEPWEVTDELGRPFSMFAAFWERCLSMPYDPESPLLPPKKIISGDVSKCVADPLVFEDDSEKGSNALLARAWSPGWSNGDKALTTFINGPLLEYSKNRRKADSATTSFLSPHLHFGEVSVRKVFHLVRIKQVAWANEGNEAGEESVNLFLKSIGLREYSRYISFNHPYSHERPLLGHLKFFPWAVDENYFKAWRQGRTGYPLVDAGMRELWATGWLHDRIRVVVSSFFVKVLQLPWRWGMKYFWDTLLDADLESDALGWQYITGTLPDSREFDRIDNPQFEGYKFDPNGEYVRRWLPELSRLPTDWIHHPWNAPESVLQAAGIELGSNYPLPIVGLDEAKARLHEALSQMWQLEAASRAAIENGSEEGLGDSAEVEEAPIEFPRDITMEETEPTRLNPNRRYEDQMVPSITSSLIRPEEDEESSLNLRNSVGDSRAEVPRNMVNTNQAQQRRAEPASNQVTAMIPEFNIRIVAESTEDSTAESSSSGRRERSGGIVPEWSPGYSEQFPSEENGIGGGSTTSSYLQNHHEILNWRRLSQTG

Sequence of AtCRY1 PHR (Q43125 1-509): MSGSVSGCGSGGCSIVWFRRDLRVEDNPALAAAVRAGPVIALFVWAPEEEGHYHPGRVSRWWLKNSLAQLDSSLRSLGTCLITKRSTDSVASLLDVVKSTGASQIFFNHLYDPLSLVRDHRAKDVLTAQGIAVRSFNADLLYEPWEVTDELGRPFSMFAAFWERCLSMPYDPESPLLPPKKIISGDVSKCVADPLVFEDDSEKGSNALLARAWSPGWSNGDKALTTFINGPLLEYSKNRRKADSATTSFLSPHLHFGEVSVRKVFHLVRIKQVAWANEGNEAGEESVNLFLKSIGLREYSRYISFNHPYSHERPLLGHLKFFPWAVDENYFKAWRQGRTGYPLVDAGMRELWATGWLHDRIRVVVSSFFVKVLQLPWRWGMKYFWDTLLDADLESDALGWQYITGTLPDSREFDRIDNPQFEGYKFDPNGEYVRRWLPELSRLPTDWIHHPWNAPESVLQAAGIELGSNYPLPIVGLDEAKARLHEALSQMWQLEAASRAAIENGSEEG

`Nc1ncnc2c1ncn2[C@@H]1O[C@H](COP(=O)(O)OP(=O)(O)OP(=O)(O)O)[C@@H](O)[C@H]1O` [ATP] was tested, and the Kd (AtCRY1 PHR) was 1400 ± 600 nM and the “UV-Vis and transient absorption with ATP (control experiments)” value [1] was “we have not found any significant differences in their photoreactions”.
